Tested on: Detoxification protein genes
Assay: DNA chip mRNA expression in yeast, detoxification protein genes (Table 8)
Assay type: cell-based, Saccharomyces cerevisiae S288C
Outline: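 Values are treated/untreated fluorescence ratios from a whole-genome yeast DNA chip hybridized over 12 hours at 65° C with Cy3- or Cy5-labelled cDNA from poly(A) mRNA. Log-phase S288C yeast in YPD at 25° C had received a single toxic chemical for two hours, dosed to slow growth without killing.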

Compound: C=CC=O [(14), acrolein]
- The level of expressed mRNA in the presence of chemical substance/The level of expressed mRNA in the absence of chemical substance (yeast gene YBL064C): 5.0
- The level of expressed mRNA in the presence of chemical substance/The level of expressed mRNA in the absence of chemical substance (yeast gene YBR008C): 4.1
- The level of expressed mRNA in the presence of chemical substance/The level of expressed mRNA in the absence of chemical substance (yeast gene YBR145W): 2.2
- The level of expressed mRNA in the presence of chemical substance/The level of expressed mRNA in the absence of chemical substance (yeast gene YBR244W): 3.7
- The level of expressed mRNA in the presence of chemical substance/The level of expressed mRNA in the absence of chemical substance (yeast gene YBR293W): 1.4
- The level of expressed mRNA in the presence of chemical substance/The level of expressed mRNA in the absence of chemical substance (yeast gene YCL035C): 2.5
- The level of expressed mRNA in the presence of chemical substance/The level of expressed mRNA in the absence of chemical substance (yeast gene YCL069W): 1.3
- The level of expressed mRNA in the presence of chemical substance/The level of expressed mRNA in the absence of chemical substance (yeast gene YCR083W): 2.4
- The level of expressed mRNA in the presence of chemical substance/The level of expressed mRNA in the absence of chemical substance (yeast gene YDL100C): 1.4
- The level of expressed mRNA in the presence of chemical substance/The level of expressed mRNA in the absence of chemical substance (yeast gene YDL168W): 1.6
- The level of expressed mRNA in the presence of chemical substance/The level of expressed mRNA in the absence of chemical substance (yeast gene YDR256C): 1.6
- The level of expressed mRNA in the presence of chemical substance/The level of expressed mRNA in the absence of chemical substance (yeast gene YDR453C): 3.8
- The level of expressed mRNA in the presence of chemical substance/The level of expressed mRNA in the absence of chemical substance (yeast gene YDR513W): 2.0
- The level of expressed mRNA in the presence of chemical substance/The level of expressed mRNA in the absence of chemical substance (yeast gene YDR538W): 0.9
- The level of expressed mRNA in the presence of chemical substance/The level of expressed mRNA in the absence of chemical substance (yeast gene YEL027W): 1.4
- The level of expressed mRNA in the presence of chemical substance/The level of expressed mRNA in the absence of chemical substance (yeast gene YEL065W): 0.4
- The level of expressed mRNA in the presence of chemical substance/The level of expressed mRNA in the absence of chemical substance (yeast gene YER185W): 1.6
- The level of expressed mRNA in the presence of chemical substance/The level of expressed mRNA in the absence of chemical substance (yeast gene YFL050C): 1.0
- The level of expressed mRNA in the presence of chemical substance/The level of expressed mRNA in the absence of chemical substance (yeast gene YGL013C): 0.8
- The level of expressed mRNA in the presence of chemical substance/The level of expressed mRNA in the absence of chemical substance (yeast gene YGL254W): 1.3
- The level of expressed mRNA in the presence of chemical substance/The level of expressed mRNA in the absence of chemical substance (yeast gene YGR088W): 1.3
- The level of expressed mRNA in the presence of chemical substance/The level of expressed mRNA in the absence of chemical substance (yeast gene YGR138C): 0.9
- The level of expressed mRNA in the presence of chemical substance/The level of expressed mRNA in the absence of chemical substance (yeast gene YGR197C): 1.5
- The level of expressed mRNA in the presence of chemical substance/The level of expressed mRNA in the absence of chemical substance (yeast gene YGR209C): 5.0
- The level of expressed mRNA in the presence of chemical substance/The level of expressed mRNA in the absence of chemical substance (yeast gene YGR224W): 0.9
- The level of expressed mRNA in the presence of chemical substance/The level of expressed mRNA in the absence of chemical substance (yeast gene YHL040C): 1.1
- The level of expressed mRNA in the presence of chemical substance/The level of expressed mRNA in the absence of chemical substance (yeast gene YHL047C): 0.5
- The level of expressed mRNA in the presence of chemical substance/The level of expressed mRNA in the absence of chemical substance (yeast gene YHR008C): 1.6
- The level of expressed mRNA in the presence of chemical substance/The level of expressed mRNA in the absence of chemical substance (yeast gene YHR048W): 1.7
- The level of expressed mRNA in the presence of chemical substance/The level of expressed mRNA in the absence of chemical substance (yeast gene YHR053C): 1.5
- The level of expressed mRNA in the presence of chemical substance/The level of expressed mRNA in the absence of chemical substance (yeast gene YHR055C): 1.5
- The level of expressed mRNA in the presence of chemical substance/The level of expressed mRNA in the absence of chemical substance (yeast gene YIR002C): 1.1
- The level of expressed mRNA in the presence of chemical substance/The level of expressed mRNA in the absence of chemical substance (yeast gene YIR038C): 2.5
- The level of expressed mRNA in the presence of chemical substance/The level of expressed mRNA in the absence of chemical substance (yeast gene YJL101C): 1.0
- The level of expressed mRNA in the presence of chemical substance/The level of expressed mRNA in the absence of chemical substance (yeast gene YJR104C): 2.0
- The level of expressed mRNA in the presence of chemical substance/The level of expressed mRNA in the absence of chemical substance (yeast gene YKL026C): 1.8
- The level of expressed mRNA in the presence of chemical substance/The level of expressed mRNA in the absence of chemical substance (yeast gene YKL064W): 1.1
- The level of expressed mRNA in the presence of chemical substance/The level of expressed mRNA in the absence of chemical substance (yeast gene YKR066C): 1.5
- The level of expressed mRNA in the presence of chemical substance/The level of expressed mRNA in the absence of chemical substance (yeast gene YKR105C): 1.2
- The level of expressed mRNA in the presence of chemical substance/The level of expressed mRNA in the absence of chemical substance (yeast gene YKR106W): 1.7
- The level of expressed mRNA in the presence of chemical substance/The level of expressed mRNA in the absence of chemical substance (yeast gene YLL028W): 0.7
- The level of expressed mRNA in the presence of chemical substance/The level of expressed mRNA in the absence of chemical substance (yeast gene YLL057C): 1.1
- The level of expressed mRNA in the presence of chemical substance/The level of expressed mRNA in the absence of chemical substance (yeast gene YLL060C): 10.6
- The level of expressed mRNA in the presence of chemical substance/The level of expressed mRNA in the absence of chemical substance (yeast gene YLR043C): 2.1
- The level of expressed mRNA in the presence of chemical substance/The level of expressed mRNA in the absence of chemical substance (yeast gene YLR046C): 1.3
- The level of expressed mRNA in the presence of chemical substance/The level of expressed mRNA in the absence of chemical substance (yeast gene YML028W): 2.0
- The level of expressed mRNA in the presence of chemical substance/The level of expressed mRNA in the absence of chemical substance (yeast gene YML116W): 2.0
- The level of expressed mRNA in the presence of chemical substance/The level of expressed mRNA in the absence of chemical substance (yeast gene YMR015C): 0.8
- The level of expressed mRNA in the presence of chemical substance/The level of expressed mRNA in the absence of chemical substance (yeast gene YMR038C): 1.1
- The level of expressed mRNA in the presence of chemical substance/The level of expressed mRNA in the absence of chemical substance (yeast gene YNL239W): 1.3
- The level of expressed mRNA in the presence of chemical substance/The level of expressed mRNA in the absence of chemical substance (yeast gene YNL241C): 1.1
- The level of expressed mRNA in the presence of chemical substance/The level of expressed mRNA in the absence of chemical substance (yeast gene YNL259C): 1.4
- The level of expressed mRNA in the presence of chemical substance/The level of expressed mRNA in the absence of chemical substance (yeast gene YOL158C): 1.0
- The level of expressed mRNA in the presence of chemical substance/The level of expressed mRNA in the absence of chemical substance (yeast gene YOR031W): 1.5
- The level of expressed mRNA in the presence of chemical substance/The level of expressed mRNA in the absence of chemical substance (yeast gene YOR153W): 0.3
- The level of expressed mRNA in the presence of chemical substance/The level of expressed mRNA in the absence of chemical substance (yeast gene YOR247W): 0.4
- The level of expressed mRNA in the presence of chemical substance/The level of expressed mRNA in the absence of chemical substance (yeast gene YOR251C): 1.1
- The level of expressed mRNA in the presence of chemical substance/The level of expressed mRNA in the absence of chemical substance (yeast gene YOR273C): 0.5
- The level of expressed mRNA in the presence of chemical substance/The level of expressed mRNA in the absence of chemical substance (yeast gene YPL163C): 0.6
- The level of expressed mRNA in the presence of chemical substance/The level of expressed mRNA in the absence of chemical substance (yeast gene YPR200C): 2.0

From US8192962B2, “Processes for detecting toxic substances” (Daikin Industries, Ltd., priority 2001, dated 2012)
